Reference: US20200138772A1, “STABILIZED FORMULATIONS OF CANNABINOID COMPOSITIONS” (priority 2018, published 2020)
Where two headings read alike, the source gives them in different places.

What was measured:
[1] = Randomized, double blind, parallel bioavailability study (plasma CBD, THC and metabolites by LCMS); settings: human, oral
Experimental: Dosage was standardized to 10 mg of THC. […] Secondary outcome was a subjective evaluation of drug effects assessed using modified Drug Effects Questionnaire (DEQ-5) for the control product and the experimental product. Relevant experimental descriptions of several study aspects are detailed below.
Administration: A pre-dose plasma (via IV catheter) and a urine sample is collected from the participant before the administration of the emulsions/formulations. […] The bowl in which the product is mixed is rinsed with 100 ml water and the participant consumes the complete amount. After the product mixture is consumed, the participant is provided with an 8 oz glass of water that is then consumed in its entirety within 1-2 minutes.
The samples are also analyzed for HbAlc, CBC, electrolytes (Na, K, Cl, Ca), creatinine, estimated glomerular filtration rate (eGFR), aspartate aminotransferase (AST), alanine aminotransferase (ALT), and bilirubin. Urine samples are also obtained at the following time ranges: 1-4 hrs, 4-8 hrs and 8-12 hrs.
Plasma and urine samples are collected at KGK Science.

[2] = cited from earlier work; for time to achieve peak plasma concentration (tmax): different doses; for half-life / systemic bioavailability: humans

C=C(C)[C@@H]1CCC(C)=C[C@H]1c1c(O)cc(CCCCC)cc1O [CBD, (−)-Cannabidiol (CBD)]
Tmax [1]: 0.167 to 1.42 h | time to achieve peak plasma concentration (tmax) [2]: 1.5 to 4 h | half-life ([2]; intravenous injection): 18 to 33 h | half-life ([2]; oral administration): 48 to 120 h | half-life ([2]; smoking): 27 to 35 h

CCCCCc1cc(O)c2c(c1)OC(C)(C)[C@@H]1CCC(C)=C[C@@H]21 [Δ^9-THC, Δ^9-Tetrahydrocannabinol (Δ^9-THC)]
Tmax [1]: 0.167 to 1.5 h | time to achieve peak plasma concentration (tmax) [2]: 1 to 2 h | systemic bioavailability ([2]; oral): 4-12% | maximal plasma concentrations observed as late as ([2]; orally taken, in some cases): ≤ 6 h | systemic bioavailability ([2]; smoked): 10-27%
